{
  "source": "patent US12128035B2",
  "about": "“Activating pyruvate kinase R” (Novo Nordisk Health Care AG, priority 2021, dated 2024)",
  "key": {"[1]": {"conditions": "intravenous (IV) bolus dose; cited from earlier work"}, "[2]": {"conditions": "cited from earlier work"}, "PKR(R510Q)": {"target": "PKR(R510Q) (Homo sapiens, UniProt P30613, R510Q)", "sequence (P30613 whole entry R510Q)": "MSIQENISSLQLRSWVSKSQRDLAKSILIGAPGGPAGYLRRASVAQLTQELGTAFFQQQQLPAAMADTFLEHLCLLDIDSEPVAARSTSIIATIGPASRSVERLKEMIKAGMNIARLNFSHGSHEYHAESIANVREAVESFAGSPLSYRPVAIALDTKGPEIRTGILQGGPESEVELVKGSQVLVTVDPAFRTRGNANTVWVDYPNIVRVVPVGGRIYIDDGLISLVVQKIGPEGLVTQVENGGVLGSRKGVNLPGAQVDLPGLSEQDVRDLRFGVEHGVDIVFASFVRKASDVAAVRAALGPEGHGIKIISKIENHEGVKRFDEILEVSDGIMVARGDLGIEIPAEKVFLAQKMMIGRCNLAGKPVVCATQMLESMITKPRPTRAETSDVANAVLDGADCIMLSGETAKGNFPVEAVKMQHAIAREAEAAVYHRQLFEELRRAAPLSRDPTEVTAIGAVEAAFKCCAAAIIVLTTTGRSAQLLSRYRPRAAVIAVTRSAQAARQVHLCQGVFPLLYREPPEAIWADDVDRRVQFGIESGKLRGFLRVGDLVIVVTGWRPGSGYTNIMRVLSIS", "experiment": "Luminescence Assay (Kinase Glo Plus) of PKR activation", "format": "biochemical", "conditions": "read-out: AC50 (PKRR510Q)", "description": "(§1) PKR Activating Compounds can be identified with the biochemical Luminescence Assay of Example 2. The PKR activating activity of a series of chemical compounds was evaluated using the Luminescence Assay below, including compounds designated Compound 1, and Compound 2, or mixtures thereof.\n(§2) For each tested compound, the ability to activate PKR was determined using the following Luminescence Assay. The effect of phosphorylation of adenosine-5′-diphosphate (ADP) by PKR is determined by the Kinase Glo Plus Assay (Promega) in the presence or absence of FBP (D-fructose-1,6-diphosphate; BOC Sciences, CAS: 81028-91-3) as follows. Unless otherwise indicated, all reagents are purchased from Sigma-Aldrich. All reagents are prepared in buffer containing 50 mM Tris-HCl, 100 mM KCl, 5 mM MgCl2, and 0.01% Triton X100, 0.03% BSA, and 1 mM DTT. Enzyme and PEP (phosphoenolpyruvate) are added at 2× to all wells of an assay-ready plate containing serial dilutions of test compounds or DMSO vehicle. Final enzyme concentrations for PKR (wt), PKR(R510Q), and PKR (G332S) are 0.8 nM, 0.8 nM, and 10 nM respectively. Final PEP concentration is 100 μM. The Enzyme/PEP mixture is incubated with compounds for 30 minutes at RT before the assay is initiated with the addition of 2×ADP and KinaseGloPlus. Final concentration of ADP is 100 μM. […] For assays containing FBP, that reagent is added at 30 μM upon reaction initiation. Reactions are allowed to progress for 45 minutes at RT until luminescence is recorded by the BMG PHERAstar FS Multilabel Reader. The compound is tested in triplicate at concentrations ranging from 42.5 μM to 2.2 nM in 0.83% DMSO. AC50 measurements were obtained by the standard four parameter fit algorithm of ActivityBase XE Runner (max, min, slope and AC50). The AC50 value for a compound is the concentration (μM) at which the activity along the four parameter logistic curve fit is halfway between minimum and maximum activity.\n(§3) As set forth in Table 2 below, AC50 values are defined as follows: ≤0.1 μM (+++); >0.1 μM and ≤1.0 μM (++); >1.0 μM and ≤40 μM (+); >40 μM (0)."}, "PKR (G332S)": {"target": "PKR (G332S) (Homo sapiens, UniProt P30613, G332S)", "sequence (P30613 whole entry G332S)": "as the sequence (P30613 whole entry R510Q) above, with G332S, Q510R counted along it", "experiment": "Luminescence Assay (Kinase Glo Plus) of PKR activation", "format": "biochemical", "conditions": "read-out: AC50 (PKRG332S)", "description": "as §1, §2, §3"}, "PKR (wt)": {"target": "PKR (wt) (Homo sapiens, UniProt P30613)", "sequence (P30613 whole entry)": "as the sequence (P30613 whole entry R510Q) above, with Q510R counted along it", "experiment": "Luminescence Assay (Kinase Glo Plus) of PKR activation", "format": "biochemical", "description": "as §1, §2, §3"}, "aromatase": {"target": "T1, aromatase (Homo sapiens, UniProt P11511)", "T1 construct": "endogenous in cells; host or cells: H295R adreno-cortical carcinoma cells; healthy human subjects in vivo", "T1 sequence (P11511 1-503)": "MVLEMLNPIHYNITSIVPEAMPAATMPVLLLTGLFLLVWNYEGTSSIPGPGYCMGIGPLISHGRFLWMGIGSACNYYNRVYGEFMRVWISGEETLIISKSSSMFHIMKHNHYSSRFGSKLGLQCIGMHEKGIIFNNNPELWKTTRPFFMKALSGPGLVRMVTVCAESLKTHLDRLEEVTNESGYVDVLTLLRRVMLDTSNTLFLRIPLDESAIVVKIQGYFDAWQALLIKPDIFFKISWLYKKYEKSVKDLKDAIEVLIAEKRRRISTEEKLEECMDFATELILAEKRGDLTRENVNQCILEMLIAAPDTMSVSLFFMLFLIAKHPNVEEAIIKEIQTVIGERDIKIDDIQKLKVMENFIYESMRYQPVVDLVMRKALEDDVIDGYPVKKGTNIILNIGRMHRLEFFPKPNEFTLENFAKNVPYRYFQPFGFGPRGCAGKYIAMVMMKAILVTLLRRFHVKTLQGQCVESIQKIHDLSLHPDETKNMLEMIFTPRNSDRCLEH", "conditions": "Yang et al. 2018; Grace et al. 2019; cited from earlier work"}, "[3]": {"experiment": "Phase 1: hematologic and hemolytic laboratory parameters in SCD patients", "format": "in vivo, human", "conditions": "for Hemoglobin / Indirect Bilirubin / Lactate Dehydrogenase, U/L / Reticulocytes, %: SCD 300 mg Compound 1/Placebo (blinded) once daily, individual Pt 1-3", "excerpt": "Laboratory changes relative to pretreatment for each pt in the MD cohort as of Jul. In 2 of 3 SCD MD-1 pts treated with Compound 1/placebo (currently blinded), Hb increased by >1 g/dL, % reticulocytes decreased, and markers of hemolysis were improved after 14 days of treatment (compared to pre-treatment levels). Hematologic parameters returned to pre-treatment levels 4 to 7 days post-treatment (data not shown) without clinical AEs.\nA median 1.2 g/dL Hb increase (range 0, 2.3) and a median 60% reticulocyte decrease (range −39%, −81%) over baseline were observed. The onset of the increase in Hb was rapid and continued to increase in most patients through the end of treatment, indicating the potential for additional improvement with extended dosing. […] A median 36% LDH decrease (range +18%, −57%) and a median 35% bilirubin decrease (range −7%, −63%) over baseline were observed, which is consistent with the hypothesis that Compound 1 improves RBC survival and reduces RBC turnover."}, "[4]": {"conditions": "whole blood, relative to fasted state"}},
  "note": "Several values for one entry are separate records, joined by “and”; a condition that tells them apart may be missing. Identical values can stand only once. Like-named read-outs stand apart in the source and are kept apart here.",
  "data": [
    {"smiles": "NC(=O)CC[C@H](N)C(=O)O", "note": "[L-glutamine, (S)-2-aminoglutaramic acid]", "values": [
      {"measurement": "volume of distribution", "setting": "[1]", "result": "approximately 200 mL/kg"}
    ]},
    {"smiles": "CC(C)n1nccc1-c1ncccc1COc1cccc(O)c1C=O", "note": "[voxelotor, 2-hydroxy-6-((2-(1-isopropyl-1H-pyrazol-5-yl)pyridin-3-yl)methoxy)benzaldehyde]", "values": [
      {"measurement": "increase in AUC with high-fat, high-calorie meal", "setting": "[2]; plasma", "result": 42, "unit": "%"},
      {"measurement": "increase in Cmax with high-fat, high-calorie meal", "setting": "[2]; plasma", "result": 95, "unit": "%"},
      {"measurement": "steady state AUC higher in HbSC vs HbSS genotype patients", "setting": "[2]; plasma", "result": 23, "unit": "%"},
      {"measurement": "steady state Cmax higher in HbSC vs HbSS genotype patients", "setting": "[2]; plasma", "result": 15, "unit": "%"},
      {"measurement": "increase in AUC with high-fat, high-calorie meal", "setting": "[2]; [4]", "result": 42, "unit": "%"},
      {"measurement": "increase in Cmax with high-fat, high-calorie meal", "setting": "[2]; [4]", "result": 45, "unit": "%"},
      {"measurement": "steady state AUC higher in HbSC vs HbSS genotype patients", "setting": "[2]; whole blood", "result": 50, "unit": "%"},
      {"measurement": "steady state Cmax higher in HbSC vs HbSS genotype patients", "setting": "[2]; whole blood", "result": 45, "unit": "%"}
    ]},
    {"smiles": "O=C([C@@H](CO)c1ccccc1)N1CC2=C(C1)CN(S(=O)(=O)c1cnc3c(c1)OCCO3)C2", "note": "(single isomer, unassigned) [Compound 2]", "values": [
      {"measurement": "AC50", "setting": "PKR(R510Q)", "result": "1 to 40", "unit": "µM"},
      {"measurement": "AC50", "setting": "PKR (G332S)", "result": "1 to 40", "unit": "µM"},
      {"measurement": "AC50", "setting": "PKR (wt)", "result": "1 to 40", "unit": "µM"}
    ]},
    {"smiles": "O=C(c1ccc(NS(=O)(=O)c2cccc3cccnc23)cc1)N1CCN(CC2CC2)CC1", "note": "[AG-348]", "values": [
      {"measurement": "aromatase inhibition", "setting": "aromatase", "result": "Aromatase inhibition has been observed"}
    ]},
    {"smiles": "O=C([C@H](CO)c1ccccc1)N1CC2=C(C1)CN(S(=O)(=O)c1cnc3c(c1)OCCO3)C2", "note": "[Compound 1/Placebo]", "values": [
      {"measurement": "Hemoglobin", "setting": "[3]; Day 7 (on Tx)", "result": "7.9 g/dL and 10.4 g/dL and 8.8 g/dL"},
      {"measurement": "Indirect Bilirubin", "setting": "[3]; Day 7 (on Tx)", "result": "2.5 mg/dL and 0.9 mg/dL and 0.8 mg/dL"},
      {"measurement": "Lactate Dehydrogenase, U/L", "setting": "[3]; Day 7 (on Tx)", "result": "148 U/L and 257 U/L and 371 U/L"},
      {"measurement": "Reticulocytes, %", "setting": "[3]; Day 7 (on Tx)", "result": "12.8% and 6.8% and 5.8%"},
      {"measurement": "Hemoglobin", "setting": "[3]; Day 14/15 (EOT)", "result": "7.5 g/dL and 11.1 g/dL and 9.2 g/dL"},
      {"measurement": "Indirect Bilirubin", "setting": "[3]; Day 14/15 (EOT)", "result": "3.0 mg/dL and 0.8 mg/dL and 1.0 mg/dL"},
      {"measurement": "Lactate Dehydrogenase, U/L", "setting": "[3]; Day 14/15 (EOT)", "result": "192 U/L and 226 U/L and 279 U/L"},
      {"measurement": "Reticulocytes, %", "setting": "[3]; Day 14/15 (EOT)", "result": "11.4% and 0.8% and 4.2%"},
      {"measurement": "patients with Hb increased by >1 g/dL", "setting": "[3]; SCD MD-1, Compound 1/placebo (currently blinded), 14 days", "result": "2 of 3"}
    ]}
  ]
}
